Legend:
Format in all cases: in vivo, human
[1] = system: seizure occurrence in presurgical epilepsy participants; assay: Double-blind placebo-controlled study during AED discontinuation with inpatient continuous EEG monitoring; conditions: 500 mg TID or 625 mg TID, up to 8 days; log-rank p=0.08
Method: A double-blind, placebo-controlled study that enrolled 52 participants 18-65 years of age undergoing AED discontinuation during inpatient continuous EEG monitoring as part of an evaluation for surgical treatment of epilepsy was performed. Participants were randomized and administered: (i) ganaxolone 500 mg TID, (ii) 625 mg TID, or (iii) matching placebo and treated for up to 8 days. The primary endpoint was difference in the duration of treatment before meeting withdrawal criteria based on seizure occurrence.

[2] = system: partial-onset (focal) seizures; assay: Phase 3 trial in adults with focal seizures
Method: Based on the results of the phase 2 study, a double-blind, placebo-controlled phase 3 trial in adults with focal seizures was conducted. The study enrolled two cohorts: Cohort 1 was an initial assessment of safety and tolerability of GNX 1200 or 1800 mg/day compared to placebo. Cohort 2, on which the primary efficacy analysis was based, enrolled 359 participants with a diagnosis of epilepsy with uncontrolled partial-onset (focal) seizures with or without secondary generalization who had failed at least two prior AEDs and had been on a stable regimen of one to three AEDs for at least one month. Following an eight-week prospective baseline period during which there were at least three seizures/28 days, participants were randomized to GNX 1800 mg/d (N=179) or placebo (N=180). The primary endpoint was the percent change in 28-day frequency of focal motor, focal impaired awareness and focal to bilateral tonic-clonic seizures from baseline to the double-blind phase. The primary efficacy analysis was a rank ANCOVA based on the modified intent-to-treat (mITT) population, defined as randomized participants who had taken at least one dose of study drug and provided post-baseline seizure data.

[3] = system: major motor seizures in patients with CDKL5 deficiency disorder (CDD); assay: Percent change in major motor seizure frequency vs plasma ganaxolone level, phase 3 CDD trial; conditions: back-transformation of log values; CDD participants
From the text: (§1) Global, randomized, double-blind, placebo-controlled phase 3 clinical trial to assess the safety and efficacy of adjunctive ganaxolone for the treatment of seizures associated with CDD. Patients aged 2 to 21 years with a pathogenic or likely pathogenic mutation of the CDKL5 gene, neurodevelopmental impairment, and seizures refractory to treatment with at least 2 prior antiseizure medications who experienced at least 16 seizures per 28 days during the 2 months prior to screening were eligible to enroll. Study consisted of a 6-week baseline followed by a 17-week double-blind phase (ganaxolone or placebo, 1:1). The dose of ganaxolone 50 mg/mL suspension was titrated over 4 weeks to 63 mg/kg/day (21 mg/kg TID), not to exceed 1800 mg/d (600 mg TID), or to the maximum tolerated dose. Blood draws for PK analysis were scheduled to occur at visit 3 (week 5), visit 4 (week 9), and visit 5 (week 17).
Mean ganaxolone concentration was calculated for each subject using available results from up to three laboratory determinations during the double-blind phase. Linear regression was conducted using arithmetic- and natural logarithm-transformed percent reduction in major motor seizures (loge [percent reduction+100]) as dependent variable and natural logarithm-transformed mean ganaxolone concentration as the single explanatory variable. […]

[4] = Plasma ganaxolone concentration in phase 3 CDD trial (PK/PD analysis)
From the text: as §1
Mean ganaxolone concentration was calculated for each subject using available results from up to three laboratory determinations during the double-blind phase. Linear regression was conducted using arithmetic- and natural logarithm-transformed percent reduction in major motor seizures (loge [percent reduction+100]) as dependent variable and natural logarithm-transformed mean ganaxolone concentration as the single explanatory variable. Regression diagnostics included examination of residual and normal probability plots and determination of outliers and influential values. Cases with standardized residuals >2 or <−2 were excluded from the model and the regression was repeated.
The resulting sample was utilized in determination of a Pearson correlation coefficient (using log-transformed values). Additionally, percent seizure reduction was compared in three tertiles representing low (N=13), medium (N=13) and high (N=12) mean per subject ganaxolone concentrations using a Kruskal-Wallis test.

[5] = system: partial-onset (focal) seizures; assay: Phase 2 study in adults with uncontrolled partial-onset (focal) seizures
Method: A Phase 2 study was conducted. It enrolled 147 participants 18-69 years of age with a diagnosis of epilepsy with uncontrolled partial-onset (focal) seizures with or without secondary generalization despite being treated with up to 3 AEDs. Participants were randomized to adjunctive placebo (N=49) or GNX liquid suspension (N=98) titrated to a target dose of at 500 mg TID (1500 mg/day) in addition to their baseline AEDs, after which they entered an eight-week prospective baseline period followed by a 10-week double-blind phase. The primary endpoint was the reduction in weekly frequency of focal motor, focal impaired awareness and focal to bilateral tonic-clonic seizures from baseline to the double-blind phase. The prespecified primary analysis was the reduction in mean weekly seizure frequency, with log-transformed rates analyzed using analysis of covariance (ANCOVA). The protocol defined the population for analysis (“Primary Population”) as participants with 10 or fewer seizures/week during the baseline period.

## CC(=O)[C@H]1CC[C@H]2[C@@H]3CC[C@H]4C[C@](C)(O)CC[C@]4(C)[C@H]3CC[C@]12C [ganaxolone]
[1]
  duration of treatment before meeting withdrawal criteria based on seizure occurrence, relative to placebo: longer duration of treatment prior to study withdrawal
[2]; Phase 3, 1800 mg/d, BID, N 179
  Median % reduction GNX: 21.3%
[2]; mITT, Cohort 2, 1800 mg/d, 28-day frequency, p=0.179 vs placebo
  percent reduction in seizure frequency from baseline period to double-blind phase: 21.3%
[2]; oral 1800 mg daily (900 mg twice a day), adults with focal seizures
  clinical endpoint outcome: clinical endpoint was not achieved
[3]
  seizure reduction predicted at plasma concentration of approximately 100 ng/mL: approximately 40%
[4]; High GNX level tertile (n = 12)
  Mean GNX level: 172.6 ng/mL
[4]; Low GNX level tertile (n = 13)
  Mean GNX level: 40.2 ng/mL
[4]; Medium GNX level tertile (n = 13)
  Mean GNX level: 72.3 ng/mL
[5]; ITT population, 1500 mg/day TID, p=0.014 vs placebo
  median percent reduction in seizure frequency: 25.9%
[5]; ITT population, p=0.049
  net reduction in weekly seizure frequency compared to placebo: 11.4%
[5]; Phase 2, 1500 mg/d, TID, N 98
  Median % reduction GNX: 25.9%
[5]; Primary Population (10 or fewer seizures/week at baseline), p=0.042
  net reduction in weekly seizure frequency compared to placebo: 11.8%
[5]; Primary Population, 500 mg TID liquid suspension, adjunctive, baseline 3.13
  weekly seizure frequency during the double-blind phase: 2.70
